We go through 11 molecules from ChEMBL document CHEMBL1137279, “Synthesis of N1-arylidene-N2-quinolyl- and N2-acrydinylhydrazones as potent antimalarial agents active against CQ-resistant P. falciparum strains” (Bioorg Med Chem Lett, 2006).

Molecules are shown by their SMILES.

The test system of series [1] is Plasmodium falciparum. Briefly: Antimalarial activity against chloroquine-sensitive Plasmodium falciparum 3D7. The class given is functional, organism-based.
In series [2] the test system is Plasmodium falciparum. The series is described as follows: Antimalarial activity against chloroquine-resistant Plasmodium falciparum K1. It is filed as functional, organism-based.
Series [3] concerns Plasmodium falciparum. The series is described as follows: Antimalarial activity against chloroquine-resistant Plasmodium falciparum W2. The class given is functional, organism-based.
Series [4] has as its system Plasmodium falciparum. Briefly: Antimalarial activity against chloroquine-sensitive Plasmodium falciparum D10. It is filed as functional, organism-based.
Series [5] can be described thus: Cytotoxicity against mouse WEHI cell line by MTT assay. The class given is cell-based. The settings on record: WEHI cells, read-out: ED50 (the source's name).

With `CCN(CC)Cc1ccc(/C=N/Nc2ccnc3ccc(OC)cc23)cc1`, the IC50 came out at 11 nM in series [1], 55.1 nM in series [2], 79 nM in series [3] and 39.2 nM in series [4].

Regarding `COc1ccc(/C=N/Nc2ccnc3cc4c(cc23)OCO4)cc1`, the IC50 is 155 nM in series [1], 467 nM in series [2], 163 nM in series [3] and 210 nM in series [4].

Regarding `COc1ccc2nc3cc(Cl)ccc3c(N/N=C/c3ncc[nH]3)c2c1`, the IC50 in series [1] turned out to be 1 nM; in series [2], 4.5 nM; in series [3] it was 30.8 nM; in series [4], 62.6 nM. Also, in series [5], the CC50 is 5100 nM.

For `CCN(CC)CCCC(C)Nc1ccnc2cc(Cl)ccc12` (stereo not given) [CHLOROQUINE], the CC50 in series [5] was 9700 nM.

Consider `COc1cccc2c(N/N=C/c3ccc(N(C)C)cc3)ccnc12`, for which the concentration for half-maximal inhibition (IC50) came out at 356 nM in series [3] and 337 nM in series [4].

As to `COc1cccc2c(N/N=C/c3ccccc3)ccnc12`, the IC50 in series [1] was 5700 nM; in series [3], 254 nM; in series [4], 519 nM.

`Clc1ccc2c(N/N=C/c3ccc(CN4CCCC4)cc3)ccnc2c1`: the IC50 in series [1] turned out to be 19.1 nM; in series [2], 16.4 nM; in series [3], 58.3 nM; in series [4], 28.8 nM. For the same molecule, the CC50 in series [5] was 19400 nM.

In the case of `COc1ccc2nc3cc(Cl)ccc3c(N/N=C/c3ncc[nH]3)c2n1`, the IC50 in series [1] was 283 nM; in series [2], 198 nM; in series [3], 26.9 nM; in series [4] it was 72 nM.

For `COc1ccc2nccc(N/N=C/c3ccc(N(C)C)cc3)c2c1`, the IC50 in series [3] came to 104 nM; in series [4] it was 83 nM.

`COc1ccc(/C=N/Nc2ccnc3ccc(OC)cc23)cc1`: the figures for the IC50 in series [3] and in series [4] were 128 nM and 99 nM, respectively.

As for `COc1ccc2nc3cc(Cl)ccc3c(N/N=C/c3ccc(CN4CCCC4)cc3)c2c1`, the IC50 in series [1] came out at 112 nM; in series [3], 137 nM; in series [4] it was 97 nM.

The IC50 is the concentration at which inhibition is half-maximal.
